Results taken from ChEMBL document CHEMBL1909046, “DrugMatrix in vitro pharmacology data”.

Columns and labels:
[1] = target: T1, Alpha-1B adrenergic receptor (Rattus norvegicus, UniProt P15823); experiment: DRUGMATRIX: Alpha-1B adrenergic receptor radioligand binding (ligand: prazosin); assay type: cell membranes, Wistar, Liver, Membrane; conditions: Not Active = under 50% inhibition at 10 µM
T1 sequence (P15823 whole entry): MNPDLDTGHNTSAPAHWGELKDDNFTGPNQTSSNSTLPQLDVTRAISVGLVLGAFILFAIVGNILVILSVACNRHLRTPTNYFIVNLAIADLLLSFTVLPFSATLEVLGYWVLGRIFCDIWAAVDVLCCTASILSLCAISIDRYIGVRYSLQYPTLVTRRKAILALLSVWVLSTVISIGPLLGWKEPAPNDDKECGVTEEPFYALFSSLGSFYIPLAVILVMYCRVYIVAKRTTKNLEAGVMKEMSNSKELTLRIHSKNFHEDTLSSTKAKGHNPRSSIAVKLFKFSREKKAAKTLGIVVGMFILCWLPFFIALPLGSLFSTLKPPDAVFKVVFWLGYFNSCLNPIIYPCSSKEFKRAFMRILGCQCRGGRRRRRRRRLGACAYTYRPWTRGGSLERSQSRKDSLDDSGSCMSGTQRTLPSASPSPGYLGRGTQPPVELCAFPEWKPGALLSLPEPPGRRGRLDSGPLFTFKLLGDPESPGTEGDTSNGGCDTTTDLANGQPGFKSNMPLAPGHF

[2] = DRUGMATRIX: Phorbol Ester radioligand binding (ligand: [3H] PDBu); assay type: cell membranes, Mus musculus, ICR, Brain, Membrane; conditions: Not Active = under 50% inhibition at 10 µM
[3] = target: T2, C-X-C chemokine receptor type 1 (Homo sapiens, UniProt P25024); further: in other assays of this panel Not Active means under 50% inhibition at 10 µM
T2 sequence (P25024 whole entry): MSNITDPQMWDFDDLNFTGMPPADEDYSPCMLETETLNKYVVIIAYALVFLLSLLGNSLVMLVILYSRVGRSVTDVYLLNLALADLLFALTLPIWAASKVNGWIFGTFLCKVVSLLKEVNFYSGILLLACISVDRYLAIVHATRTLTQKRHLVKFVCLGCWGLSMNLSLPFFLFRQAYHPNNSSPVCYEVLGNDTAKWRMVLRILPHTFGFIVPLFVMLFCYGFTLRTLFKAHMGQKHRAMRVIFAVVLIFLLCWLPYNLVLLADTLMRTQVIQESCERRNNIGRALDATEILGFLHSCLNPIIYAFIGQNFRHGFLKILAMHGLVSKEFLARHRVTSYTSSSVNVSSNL

[4] = DRUGMATRIX: Atrial Natriuretic Factor (ANF) radioligand binding (ligand: [125I] ANF (rat)); assay type: cell membranes, Cavia porcellus, Dunkin-Hartley, Adrenal gland, Membrane; conditions: Not Active = under 50% inhibition at 10 µM
Nitric oxide synthase 1 = Nitric oxide synthase 1 (Rattus norvegicus, UniProt P29476); assay type: tissue-based, Cerebellum; further: in other assays of this panel Not Active means under 50% inhibition at 10 µM
Nitric oxide synthase 1, sequence (P29476 whole entry): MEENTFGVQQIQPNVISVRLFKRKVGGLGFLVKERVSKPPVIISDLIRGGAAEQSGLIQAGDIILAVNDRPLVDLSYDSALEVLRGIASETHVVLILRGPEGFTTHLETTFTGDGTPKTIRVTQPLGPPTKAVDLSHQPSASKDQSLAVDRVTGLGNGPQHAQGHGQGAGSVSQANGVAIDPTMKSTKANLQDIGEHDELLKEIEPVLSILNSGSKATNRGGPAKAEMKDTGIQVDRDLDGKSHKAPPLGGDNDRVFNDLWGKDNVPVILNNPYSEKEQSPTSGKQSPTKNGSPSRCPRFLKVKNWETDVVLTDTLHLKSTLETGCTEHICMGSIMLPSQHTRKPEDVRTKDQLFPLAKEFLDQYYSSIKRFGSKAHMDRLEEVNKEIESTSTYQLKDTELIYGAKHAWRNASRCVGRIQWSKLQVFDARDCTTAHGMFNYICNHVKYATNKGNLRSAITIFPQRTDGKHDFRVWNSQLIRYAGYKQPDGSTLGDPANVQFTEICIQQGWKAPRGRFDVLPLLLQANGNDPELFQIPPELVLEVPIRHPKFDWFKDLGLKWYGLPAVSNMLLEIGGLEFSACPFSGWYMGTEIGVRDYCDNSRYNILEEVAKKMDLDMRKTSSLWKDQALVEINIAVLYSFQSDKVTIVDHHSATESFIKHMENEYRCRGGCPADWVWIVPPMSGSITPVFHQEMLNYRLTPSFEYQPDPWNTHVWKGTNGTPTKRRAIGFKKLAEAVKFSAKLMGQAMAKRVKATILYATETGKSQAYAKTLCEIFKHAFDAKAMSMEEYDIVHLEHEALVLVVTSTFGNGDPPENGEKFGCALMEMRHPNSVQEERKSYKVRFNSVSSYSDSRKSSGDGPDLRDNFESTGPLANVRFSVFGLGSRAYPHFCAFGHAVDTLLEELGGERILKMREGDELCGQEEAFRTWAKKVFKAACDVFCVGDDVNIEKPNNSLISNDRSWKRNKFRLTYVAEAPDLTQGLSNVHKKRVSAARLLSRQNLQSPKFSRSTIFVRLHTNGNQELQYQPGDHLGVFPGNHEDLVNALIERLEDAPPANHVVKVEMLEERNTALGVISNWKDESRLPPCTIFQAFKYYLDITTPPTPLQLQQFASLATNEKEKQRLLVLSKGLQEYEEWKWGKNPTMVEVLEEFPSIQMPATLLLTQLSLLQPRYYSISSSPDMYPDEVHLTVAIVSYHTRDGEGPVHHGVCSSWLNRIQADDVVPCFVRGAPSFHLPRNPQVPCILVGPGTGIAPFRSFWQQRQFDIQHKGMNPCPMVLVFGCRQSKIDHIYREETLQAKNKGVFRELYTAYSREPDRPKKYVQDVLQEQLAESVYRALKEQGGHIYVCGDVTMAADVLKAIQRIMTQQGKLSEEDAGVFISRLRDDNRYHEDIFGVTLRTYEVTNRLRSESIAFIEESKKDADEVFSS

Cathepsin G = target: T3, Cathepsin G (Homo sapiens, UniProt P08311); assay type: tissue-based; conditions: neutrophil;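 further: inhibition of Cathepsin G enzyme activity, tested on an AMC-conjugated peptide substrate; in other assays of this panel Not Active means under 50% inhibition at 10 µM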
T3 sequence (P08311 whole entry): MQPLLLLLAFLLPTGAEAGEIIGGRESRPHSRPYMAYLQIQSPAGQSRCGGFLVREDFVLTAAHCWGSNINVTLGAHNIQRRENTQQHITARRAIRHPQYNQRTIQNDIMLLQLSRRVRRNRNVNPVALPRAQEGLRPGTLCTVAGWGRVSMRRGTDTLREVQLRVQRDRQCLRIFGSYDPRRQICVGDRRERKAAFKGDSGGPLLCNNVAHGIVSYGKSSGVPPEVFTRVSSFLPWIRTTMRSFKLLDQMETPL

[5] = DRUGMATRIX: Imidazoline I2, Central radioligand binding (ligand: [3H] Idazoxan); assay type: cell membranes, Rattus norvegicus, Wistar, Cerebral cortex, Membrane; conditions: Not Active = under 50% inhibition at 10 µM
[6] = target: Beta-3 adrenergic receptor (Homo sapiens, UniProt P13945); experiment: DRUGMATRIX: Adrenergic beta3 radioligand binding (ligand: [125I] Cyanopindolol); assay type: cell membranes, Membrane; conditions: hek293; Not Active = under 50% inhibition at 10 µM
Beta-3 adrenergic receptor, sequence (P13945 whole entry): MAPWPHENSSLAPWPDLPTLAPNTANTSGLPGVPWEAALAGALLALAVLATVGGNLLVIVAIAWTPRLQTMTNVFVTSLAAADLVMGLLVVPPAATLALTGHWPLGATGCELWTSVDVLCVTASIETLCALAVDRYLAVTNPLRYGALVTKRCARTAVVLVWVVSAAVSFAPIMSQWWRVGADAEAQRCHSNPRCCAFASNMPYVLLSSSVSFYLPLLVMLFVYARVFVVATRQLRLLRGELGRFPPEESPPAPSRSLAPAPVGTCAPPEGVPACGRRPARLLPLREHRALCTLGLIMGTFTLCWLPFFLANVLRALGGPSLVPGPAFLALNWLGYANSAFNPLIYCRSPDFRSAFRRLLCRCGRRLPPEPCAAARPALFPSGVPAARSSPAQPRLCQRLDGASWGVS

[7] = DRUGMATRIX: Calcium Channel Type L, Phenylalkylamine radioligand binding (ligand: [3H] (-)-Desmethoxyverapamil (D-888)); assay type: cell membranes, Rattus norvegicus, Wistar, Brain, Membrane; conditions: Not Active = under 50% inhibition at 10 µM

COc1ccc2c(c1)c(CC(=O)O)c(C)n2C(=O)c1ccc(Cl)cc1 [INDOMETHACIN]
Not Active: IC50 [1] | IC50 [2] | Ki [2] | IC50 [3] | IC50 [4] | Ki [4] | IC50 (Nitric oxide synthase 1) | IC50 (Cathepsin G) | IC50 [5] | Ki [5] | IC50 [6] | IC50 [7] | Ki [7]

CCc1c2c(nc3ccc(OC(=O)N4CCC(N5CCCCC5)CC4)cc13)-c1cc3c(c(=O)n1C2)COC(=O)[C@]3(O)CC [IRINOTECAN]
Not Active: IC50 [1] | IC50 [2] | Ki [2] | IC50 [3] | IC50 [4] | Ki [4] | IC50 (Nitric oxide synthase 1) | IC50 (Cathepsin G) | IC50 [5] | Ki [5] | IC50 [6] | IC50 [7] | Ki [7]

CC(C(=O)O)c1cccc(C(=O)c2ccccc2)c1 (centres undefined) [KETOPROFEN]
Not Active: IC50 [1] | IC50 [2] | Ki [2] | IC50 [3] | IC50 [4] | Ki [4] | IC50 (Nitric oxide synthase 1) | IC50 (Cathepsin G) | IC50 [5] | Ki [5] | IC50 [6] | IC50 [7] | Ki [7]

Nc1ccn([C@@H]2CS[C@H](CO)O2)c(=O)n1 [LAMIVUDINE]
Not Active: IC50 [1] | IC50 [2] | Ki [2] | IC50 [3] | IC50 [4] | Ki [4] | IC50 (Nitric oxide synthase 1) | IC50 (Cathepsin G) | IC50 [5] | Ki [5] | IC50 [6] | IC50 [7] | Ki [7]

O=S(=O)([O-])CCS.[Na+] [MESNA]
Not Active: IC50 [1] | IC50 [2] | Ki [2] | IC50 [3] | IC50 [4] | Ki [4] | IC50 (Nitric oxide synthase 1) | IC50 (Cathepsin G) | IC50 [5] | Ki [5] | IC50 [6] | IC50 [7] | Ki [7]

C#C[C@]1(O)CC[C@H]2[C@@H]3CCc4cc(OC)ccc4[C@H]3CC[C@@]21C [MESTRANOL]
Not Active: IC50 [1] | IC50 [2] | Ki [2] | IC50 [3] | IC50 [4] | Ki [4] | IC50 (Nitric oxide synthase 1) | IC50 (Cathepsin G) | IC50 [5] | Ki [5] | IC50 [6] | IC50 [7] | Ki [7]

CC(=O)Nc1cccc(O)c1 [METACETAMOL]
Not Active: IC50 [1] | IC50 [2] | Ki [2] | IC50 [3] | IC50 [4] | Ki [4] | IC50 (Nitric oxide synthase 1) | IC50 (Cathepsin G) | IC50 [5] | Ki [5] | IC50 [6] | IC50 [7] | Ki [7]

Cc1ncc([N+](=O)[O-])n1CCO [METRONIDAZOLE]
Not Active: IC50 [1] | IC50 [2] | Ki [2] | IC50 [3] | IC50 [4] | Ki [4] | IC50 (Nitric oxide synthase 1) | IC50 (Cathepsin G) | IC50 [5] | Ki [5] | IC50 [6] | IC50 [7] | Ki [7]

CC(C)(C(=O)c1cccnc1)c1cccnc1 [METYRAPONE]
Not Active: IC50 [1] | IC50 [2] | Ki [2] | IC50 [3] | IC50 [4] | Ki [4] | IC50 (Nitric oxide synthase 1) | IC50 (Cathepsin G) | IC50 [5] | Ki [5] | IC50 [6] | IC50 [7] | Ki [7]

Oc1ccc(OCc2ccccc2)cc1 [MONOBENZONE]
Not Active: IC50 [1] | IC50 [2] | Ki [2] | IC50 [3] | IC50 [4] | Ki [4] | IC50 (Nitric oxide synthase 1) | IC50 (Cathepsin G) | IC50 [5] | Ki [5] | IC50 [6] | IC50 [7] | Ki [7]

CC(C)(Oc1ccc(C2CCCc3ccccc32)cc1)C(=O)O (centres undefined) [NAFENOPIN]
Not Active: IC50 [1] | IC50 [2] | Ki [2] | IC50 [3] | IC50 [4] | Ki [4] | IC50 (Nitric oxide synthase 1) | IC50 (Cathepsin G) | IC50 [5] | Ki [5] | IC50 [6] | IC50 [7] | Ki [7]

COc1ccc2cc([C@H](C)C(=O)O)ccc2c1 [NAPROXEN]
Not Active: IC50 [1] | IC50 [2] | Ki [2] | IC50 [3] | IC50 [4] | Ki [4] | IC50 (Nitric oxide synthase 1) | IC50 (Cathepsin G) | IC50 [5] | Ki [5] | IC50 [6] | IC50 [7] | Ki [7]

CC(C)[C@H]1CC[C@H](C(=O)N[C@H](Cc2ccccc2)C(=O)O)CC1 [NATEGLINIDE]
Not Active: IC50 [1] | IC50 [2] | Ki [2] | IC50 [3] | IC50 [4] | Ki [4] | IC50 (Nitric oxide synthase 1) | IC50 (Cathepsin G) | IC50 [5] | Ki [5] | IC50 [6] | IC50 [7] | Ki [7]
